Measurements reported in patent publication US3998811A, “Optically active 1,4-benzodiazepines and process for the preparation thereof” (CRC Compagnia di Recerca Chimica S.A., priority 1971, dated 1976).

How the values were obtained:
mice [1] = test: Hypnotic effect, mice; format: in vivo; details: relative to chlordiazepoxide = 1.00, larger value = less effective
Method: (§1) The pharmacalogical activity of the novel compounds of this invention was evaluated by standard methods such as the anticonvulsant effect against pentylene tetrazole shock and maximal and minimal electroshock, muscle relaxing ability, the fighting test, and hypnotic effect. These standard test are described in detail in the literature, for example, in L. O. Randall, C. L. Schenkel, R. F. Banziger, Curr. Ther. Res., Clin. Exp., 590 (1965), and M. I. Gluckman, Curr. Ther. Res., Clin. Exp., 7,721 (1965).
(§2) This Example illustrates the pharmacological effectiveness of the compounds of this invention. A number of the compounds of this invention were tested for their pharmacological effect on the CNS by the procedures described above. Also tested were the corresponding racemic mixtures and three commercial tranquillizers:
(§3) The results of the tests are shown in Table IV wherein the relative potencies compared with that of chlordiazepoxide which is assigned an activity of 1.00. […] It can also be seen that the pharmaceutically active compounds of this invention compare favorably with some commercially useful tranquillizers and even surpass them in some respects.

LD 50 P.O., mice = details: mouse, in vivo, po
mice [2] = test: Anticonvulsant effect against maximal electroshock, mice; format: in vivo; details: relative to chlordiazepoxide = 1.00, larger value = less effective
Method: as §1, §2, §3

mice [3] = test: Anticonvulsant effect against pentylene tetrazole shock, mice; format: in vivo; details: relative to chlordiazepoxide = 1.00, larger value = less effective
Method: as §1, §2, §3

mice [4] = test: Fighting test, mice; format: in vivo; details: relative to chlordiazepoxide = 1.00, larger value = less effective
Method: as §1, §2, §3

mice [5] = test: Muscle relaxation (muscle relaxing ability), mice; format: in vivo; details: relative to chlordiazepoxide = 1.00, larger value = less effective
Method: as §1, §2, §3

mice [6] = test: Anticonvulsant effect against minimal electroshock, mice; format: in vivo; details: relative to chlordiazepoxide = 1.00, larger value = less effective
Method: as §1, §2, §3

experimental animals = details: R- form; even at low dosages; cited from earlier work
[7] = S- form; cited from earlier work

Compound | Relative potency, hypnotic effect (mice [1]) | LD50 (LD 50 P.O., mice) [mg/kg] | Relative potency, anticonvulsant effect, maximal electro shock (mice [2]) | Relative potency, anticonvulsant effect, pentylene tetrazole (mice [3]) | Relative potency, fighting test (mice [4]) | Relative potency, muscle relaxation (mice [5]) | Relative potency, anticonvulsant effect, minimal electro shock (mice [6]) | known adverse effect in experimental animals (experimental animals) | known pharmacological action [7]
CN1C(=O)C(OCC(O)CO)N=C(c2ccccc2)c2cc(Cl)ccc21 [31 (S)] | 0.42 | 6000 | 0.38 | 10.30 | 1.0 | 0.80 | – | – | –
O=C1Nc2ccc(Cl)cc2C(c2ccccc2)=NC1O (stereo not drawn) [Oxazepam, 7-chloro-1,3-dihydro-3-hydroxy-5-phenyl-2H-1,4-benzodiazepine-2-one] | – | 3700 | – | – | – | 0.62 | – | – | –
CC(C)[C@@H]1N=C(c2ccccc2)c2cc(Cl)ccc2NC1=O [25 (S)] | 0.80 | 1850 | 1.75 | 1.80 | 1.40 | 1.15 | 0.30 | – | –
O=C1Nc2ccc(Cl)cc2C(c2ccccc2)=N[C@H]1Cc1c[nH]c2ccccc12 [23 (S)] | 0.80 | 2300 | 4.10 | 3.20 | 7.10 | 6.20 | 1.70 | – | –
CC(O)C1N=C(c2ccccc2)c2cc(Cl)ccc2NC1=O (racemic) [24 (Rac.)] | 3.20 | – | 12.60 | 105.60 | 16.30 | 5.42 | 3.27 | – | –
CC[C@H](CO)NCCN[C@H](CC)CO [R- form, Ethambutole] | – | – | – | – | – | – | – | causes blindness in experimental animals, even at low dosages | –
C[C@@H]1N=C(c2ccccc2)c2cc(Cl)ccc2NC1=O [20 (S)] | 0.4 | 2300 | 1.32 | 4.1 | 1.0 | 1.0 | 0.20 | – | –
O=C1Nc2ccc(Cl)cc2C(c2ccccc2)=N[C@H]1Cc1ccc(O)cc1 [22 (S)] | 4.20 | 1850 | 6.30 | 7.3 | 5.70 | 4.30 | 1.42 | – | –
CC(C)C1N=C(c2ccccc2)c2cc(Cl)ccc2NC1=O (racemic) [25 (Rac.)] | 4.20 | – | 20.30 | 20.4 | 9.30 | 8.60 | 4.70 | – | –
O=C1Nc2ccc(Cl)cc2C(c2ccccc2)=NC1Cc1c[nH]c2ccccc12 (racemic) [23 (Rac.)] | 8.30 | – | 38.70 | 30.60 | 80.30 | 60.50 | 14.60 | – | –
CC[C@@H](CO)NCCN[C@@H](CC)CO [S- form of Ethambutole, Ethambutole] | – | – | – | – | – | – | – | – | anti-tuberculous agent
CC1N=C(c2ccccc2)c2cc(Cl)ccc2NC1=O (racemic) [20 (Rac.)] | 2.30 | – | 8.20 | 30.40 | 10.4 | 9.60 | 5.00 | – | –
O=C1Nc2ccc(Cl)cc2C(c2ccccc2)=NC1Cc1ccccc1 (racemic) [21 (Rac.)] | 10.70 | – | 10.30 | 40.50 | 45.8 | 40.70 | 20.60 | – | –
C[C@@H](O)[C@@H]1N=C(c2ccccc2)c2cc(Cl)ccc2NC1=O [24 (S)] | 0.51 | 6000 | 1.30 | 10.30 | 1.70 | 0.62 | 0.45 | – | –
CN1CCN=C(c2ccccc2)c2cc(Cl)ccc21 [Medazepam, 7-chloro-5-phenyl-1-methyl-1,2-dihydro-3H-1,4-benzodiazepine] | 0.30 | 1420 | 1.03 | 6.2 | 1.0 | 1.3 | 0.32 | – | –
O=C1Nc2ccc(Cl)cc2C(c2ccccc2)=N[C@H]1Cc1ccccc1 [21 (S)] | 2.10 | 1600 | 4.82 | 5.30 | 4.50 | 4.10 | 2.30 | – | –
C[C@@H]1N=C(c2ccccc2)c2cc(Cl)ccc2N(C)C1=O [26 (S)] | 0.80 | 2600 | 0.90 | 5.80 | 1.00 | 0.70 | 0.10 | – | –
CC1N=C(c2ccccc2)c2cc(Cl)ccc2N(C)C1=O (racemic) [26 (Rac.)] | 2.70 | – | 10.20 | 47.30 | 8.94 | 6.54 | 2.10 | – | –
CN1C(=O)C(OCC(O)CO)N=C(c2ccccc2)c2cc(Cl)ccc21 (racemic) [31 (Rac.)] | 2.30 | – | 4.72 | 105.4 | 8.74 | 9.60 | 2.30 | – | –
O=C1Nc2ccc(Cl)cc2C(c2ccccc2)=NC1Cc1ccc(O)cc1 (racemic) [22 (Rac.)] | 18.60 | – | 65.40 | 75.6 | 56.30 | 46.20 | 16.70 | – | –
